Measurements taken from PMC6273715, “Synthesis and Evaluation of New Benzodioxole- Based Thiosemicarbazone Derivatives as Potential Antitumor Agents” (Molecules, 2016).
Read-outs that look alike come from different tables or passages of the source.

What was measured:
C6 cells [1] = test: Mitochondrial membrane potential (JC-1) flow cytometry, C6; assay type: cell-based, rat; settings: IC50 dose, 24 h
Description: (§1) During apoptosis, several key events occur in mitochondria including the release of cytochrome c, changes in electron transport, and loss of mitochondrial transmembrane potential (ΔΨm). For this reason, ΔΨm is an important parameter of mitochondrial function in apoptosis.
(§2) The cells were seeded in six-well plates at a density of 10^5 cells/mL, and the IC50 dose of compounds 2, 5 and 10 was added to cells. The cells were incubated in 5% CO2 air-conditioned atmosphere at 37 °C. […] 5,5′,6,6′-Tetrachloro-1,1′,3,3′-tetraethylbenzimidazolylcarbocyanine iodide (JC-1) dye solution (1× assay buffer + JC-1 stock solution) was added to the cells. The stock solution was prepared by dissolving DMSO. Then the samples were incubated at a temperature of 37 °C for 10–15 min. After incubation, the cells were washed twice with an assay buffer and analyzed by BD FACS Aria Cell Sorter Software version 6.1.1 flow cytometry (BD Biosciences). The cells showing mitochondrial membrane potential disruption were determined as a percentage of all cells.

BuChE = BuChE (Homo sapiens, UniProt P06276); test: BuChE inhibition, modified Ellman's method; assay type: biochemical; settings: for IC50: tested at 5–80 μg/mL
A549 cells [2] = test: Annexin V-PI flow cytometry of apoptosis, A549; assay type: cell-based; settings: IC50 dose, 24 h
Description: (§3) Annexin V staining protocol was applied according to the manufacturer’s instructions (BD Pharmingen). The cells were then briefly washed with cold phosphate buffer saline (PBS) and suspended in a binding buffer at a concentration of 1 × 10^6 cells/mL. Then, 100 µL of this solution containing 1 × 10^5 cells was transferred to a 5 mL test tube. After 5 µL of Annexin-V and PI was added, the cells were incubated for 15 min at room temperature in the dark. Then 400 µL of 1x Binding Buffer was added to each tube and the cells were processed for data acquisition, and analyzed on a Becton–Dickinson FACS Aria using […] Version 6.1.1. Software (BD Biosciences, San Jose, CA, USA).

AChE = AChE (Electrophorus electricus, UniProt O42275); test: biochemical; assay type: biochemical; settings: for IC50: tested at 5–80 μg/mL
[3] = system: A549 human lung adenocarcinoma cells; test: MTT cytotoxicity assay, A549; assay type: cell-based; settings: MTT, 24 h, read-out: IC50 A549 Cell Line
Description: (§4) C6 Rat glioma and NIH/3T3 mouse embryonic fibroblast cells were incubated in Dulbecco’s Modified Eagle’s Medium (DMEM) (Sigma, Deisenhofen, Germany) supplemented with 10% fetal calf serum (Gibco, Paisley, UK). A549 Human lung adenocarcinoma cells were incubated in 90% RPMI supplemented with 10% fetal bovine serum (Gibco). […] Exponentially growing cells were plated at 2 × 10^4 cells/mL into 96-well microtiter tissue culture plates (Nunc, Roskilde, Denmark) and incubated for 24 h before the addition of the drugs (the optimum cell number for cytotoxicity assays was determined in preliminary experiments).
(§5) The level of cellular 3-(4,5-dimethylthiazol-2-yl)-2,5-diphenyltetrazolium bromide (MTT) (Sigma) reduction was quantified as previously described in the literature with small modifications. […] At the end of this period, MTT was added to a final concentration of 0.5 mg/mL and the cells were incubated for 4 h at 37 °C. After the medium was removed, the formazan crystals formed by MTT metabolism were solubilized by addition of 200 µL DMSO to each well and absorbance was read at 540 nm with a microtiter plate spectrophotometer (Bio-Tek Plate Reader, Winooski, VT, USA). Every concentration was repeated in three wells.

[4] = system: NIH/3T3 mouse embryonic fibroblast cells; test: MTT cytotoxicity assay, NIH/3T3; assay type: cell-based; settings: NIH3T3, 24 h, read-out: IC50 NIH/3T3 Cell Line
Description: C6 Rat glioma and NIH/3T3 mouse embryonic fibroblast cells were incubated in Dulbecco’s Modified Eagle’s Medium (DMEM) (Sigma, Deisenhofen, Germany) supplemented with 10% fetal calf serum (Gibco, Paisley, UK). A549 Human lung adenocarcinoma cells were incubated in 90% RPMI supplemented with 10% fetal bovine serum (Gibco). All media were supplemented with 100 IU/mL penicillin-streptomycin (Gibco) and cells were incubated at 37 °C in a humidified atmosphere of 95% air and 5% CO2. Exponentially growing cells were plated at 2 × 10^4 cells/mL into 96-well microtiter tissue culture plates (Nunc, Roskilde, Denmark) and incubated for 24 h before the addition of the drugs (the optimum cell number for cytotoxicity assays was determined in preliminary experiments). The stock solutions of the compounds were prepared in dimethyl sulfoxide (DMSO; Sigma Aldrich, Poole, UK) and further dilutions were made with fresh culture medium (the concentration of DMSO in the final culture medium was <0.1% which had no effect on the cell viability).
as §5

C6 cells [5] = test: Annexin V-PI flow cytometry of apoptosis, C6; assay type: cell-based; settings: IC50 dose, 24 h
Description: as §3

A549 cells [6] = test: Mitochondrial membrane potential (JC-1) flow cytometry, A549; assay type: cell-based, human; settings: IC50 dose, 24 h
Description: as §1, §2

A549 cells [7] = test: DNA synthesis inhibition (BrdU ELISA), A549; assay type: cell-based, human; settings: A549, compound at its IC50, 24 h
Description: (§6) The immunostaining procedure was carried out with specific anti-BrdU antibodies in the S-phase of the cell cycle. DNA synthesis inhibitory effects of all compounds were evaluated for 24 h. A549 and C6 cell lines were incubated with three different concentrations of the compounds that were determined according to their IC50 values. Cisplatin was used as a positive control.
(§7) Analysis of DNA synthesis was measured by a Cell Proliferation ELISA, BrdU (colorimetric) kit (Roche, Mannheim, Germany). This immunostaining procedure is based on measuring the incorporation of bromodeoxyuridine (BrdU) into nuclear DNA in place of thymidine during the S-phase of the cell cycle using specific anti-BrdU antibodies. […] Firstly cells were seeded into 96 well flat-bottomed microtiter plates at a density of 2 × 10^3. […] Microtiter plates were incubated at 37 °C in a 5% CO2/95% air humidified atmosphere for 24 h. Cells were labeled with 10 µL BrdU solution for 2 h and then fixed. Anti-BrdU-POD (100 µL) was added and incubated for 90 min. Finally, wells were washed with BPS and cells were incubated with substrate. Absorbance of the samples was measured with an ELX808-IU Bio-Tek apparatus at 492 nm. All experiments were repeated two times. For each compound dose, dublicate wells were used.

C6 rat glioma cells = test: MTT cytotoxicity assay, C6; assay type: cell-based; settings: MTT, 24 h, read-out: IC50 C6 Cell Line
Description: as §4, §5

C6 cells [8] = test: DNA synthesis inhibition (BrdU ELISA), C6; assay type: cell-based, rat; settings: C6, compound at its IC50, 24 h
Description: as §6, §7

SIRT1 = test: Sirtuin-1 detection by ELISA in C6 glioma cells; assay type: cell-based, rat; settings: 24 h
ribonucleotide reductase = system: ribonucleotide reductase; parameters: method as in PMID 21425997, PMID 22655252, PMID 22963201, PMID 19601577, PMID 26335599; settings: both enzyme and cell assays; cited from earlier work

Chain of AChE (O42275 24-633): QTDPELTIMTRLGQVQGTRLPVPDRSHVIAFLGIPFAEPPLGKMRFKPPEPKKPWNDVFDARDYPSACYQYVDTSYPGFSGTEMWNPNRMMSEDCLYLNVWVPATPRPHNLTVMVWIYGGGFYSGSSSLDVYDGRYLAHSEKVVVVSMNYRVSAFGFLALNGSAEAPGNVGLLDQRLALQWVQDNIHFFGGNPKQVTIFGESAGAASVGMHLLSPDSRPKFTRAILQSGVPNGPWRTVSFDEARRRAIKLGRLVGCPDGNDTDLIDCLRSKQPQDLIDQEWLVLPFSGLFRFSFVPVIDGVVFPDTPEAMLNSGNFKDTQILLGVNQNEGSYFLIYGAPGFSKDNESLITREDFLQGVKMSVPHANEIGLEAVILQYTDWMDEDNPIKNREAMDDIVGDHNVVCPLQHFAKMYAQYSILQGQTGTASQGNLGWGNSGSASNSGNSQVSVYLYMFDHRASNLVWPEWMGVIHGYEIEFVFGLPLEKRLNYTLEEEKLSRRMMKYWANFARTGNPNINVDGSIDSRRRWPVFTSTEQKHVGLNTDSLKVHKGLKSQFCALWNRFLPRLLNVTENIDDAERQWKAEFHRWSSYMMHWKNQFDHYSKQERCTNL
Chain of BuChE (P06276 29-602): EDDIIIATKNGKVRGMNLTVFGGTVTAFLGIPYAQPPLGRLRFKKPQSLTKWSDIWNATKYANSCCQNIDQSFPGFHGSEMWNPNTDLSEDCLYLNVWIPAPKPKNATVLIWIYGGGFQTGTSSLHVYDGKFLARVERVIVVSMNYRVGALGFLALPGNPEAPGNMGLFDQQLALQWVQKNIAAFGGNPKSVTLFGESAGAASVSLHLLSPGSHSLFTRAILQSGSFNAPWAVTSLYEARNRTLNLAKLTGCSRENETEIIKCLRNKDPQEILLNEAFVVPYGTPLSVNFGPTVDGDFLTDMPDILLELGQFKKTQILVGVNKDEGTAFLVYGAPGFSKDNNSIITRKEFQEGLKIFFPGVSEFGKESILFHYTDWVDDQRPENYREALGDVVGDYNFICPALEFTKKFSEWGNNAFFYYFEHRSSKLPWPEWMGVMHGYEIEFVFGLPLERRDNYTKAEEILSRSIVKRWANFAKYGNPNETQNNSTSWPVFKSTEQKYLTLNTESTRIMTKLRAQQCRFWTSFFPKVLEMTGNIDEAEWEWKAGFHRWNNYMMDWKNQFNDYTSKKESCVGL

Row | SMILES | P2 (%) mitochondrial membrane polarized cells, C6 Cells (C6 cells [1]) | P3 (%) mitochondrial membrane depolarized cells, C6 Cells (C6 cells [1]) | IC50 (BuChE) | Early and Late Apoptotic Cells % A549 Cells (A549 cells [2]) | Viability % A549 Cells (A549 cells [2]) | IC50 (AChE) | IC50 ([3]; Homo sapiens, A549) | IC50 [4] | Early and Late Apoptotic Cells % C6 Cells (C6 cells [5]) | Viability % C6 Cells (C6 cells [5]) | P2 (%) mitochondrial membrane polarized cells, A549 Cells (A549 cells [6]) | P3 (%) mitochondrial membrane depolarized cells, A549 Cells (A549 cells [6]) | DNA synthesis inhibition percent (A549 cells [7]) | IC50 (C6 rat glioma cells; Rattus norvegicus, C6) | DNA synthesis inhibition percent (C6 cells [8]) | also measured
1 | S=C(NN=Cc1ccc(-c2ccccc2)cc1)Nc1ccc2c(c1)OCO2 [Compound 5, 4-(1,3-Benzodioxole-5-yl)-1-[(biphenyl-4-yl)methylene]thiosemicarbazide] | 49.8% | 45.0% | > 213 µM | 12.11% | 81.8% | > 213 µM | 10.7 ± 1.53 µM | 21.3 ± 5.77 µM | 25.0% | 60.2% | 52.7% | 24.6% | 57.79% | 4.33 ± 1.04 µM | 62.98% | inhibitory activity against AChE (in words) (AChE): did not show any inhibitory activity
2 | N.N.[Cl][Pt][Cl] [Cisplatin, reference compound] | 46.6% | 48.4% | – | 32.4% | – | – | – | – | 16.3% | – | 41.4% | 54.0% | 55.73% | – | 53.95% | IC50 [3]: 3 ± 0.88 µM; SIRT1 Concentration (SIRT1; IC50/2 concentration): 4.53 ± 1.37 ng/mL; SIRT1 Concentration (SIRT1; IC50 concentration): 3.32 ± 1.41 ng/mL; IC50 (C6 rat glioma cells): 6.83 ± 0.28 µM
3 | NC(=S)NN=Cc1ncccc1N [Triapine, 3-aminopyridine-2-carboxaldehyde thiosemicarbazone] | – | – | – | – | – | – | – | – | – | – | – | – | – | – | – | potency relative to hydroxyurea (ribonucleotide reductase): 1000 times
4 | O=[N+]([O-])c1ccc(C=NNC(=S)Nc2ccc3c(c2)OCO3)cc1 [Compound 2, 4-(1,3-Benzodioxole-5-yl)-1-(4-nitrobenzylidene)thiosemicarbazide] | 44.8% | 21.1% | > 213 µM | 23.7% | 75.2% | > 232 µM | 24 ± 3.46 µM | > 145 µM | 5.4% | 94.5% | 4.5% | 9.8% | 59.85% | 23.3 ± 2.08 µM | 63.34% | –
5 | S=C(N/N=C/c1cc2c(cc1Br)OCO2)Nc1ccc2c(c1)OCO2 [Compound 10] | 35.1% | 63.7% | > 189 µM | 6.2% | 81.2% | 108 ± 3.53 µM | 29.7 ± 5.51 µM | 38.3 ± 2.08 µM | 15.8% | 69.6% | 21.9% | 57.9% | 56.38% | 12.3 ± 4.93 µM | 53.96% | inhibition on BuChE (in words) (BuChE): weak inhibition
